According to patent publication US4859682A, “2-Halogenated-8- and 1,8-substituted ergolenes” (Richter Gedeon Vegyeszeti Gyar Rt., priority 1986, dated 1989):
Structures can show the parent of a compound that is named as a salt.

Columns and labels:
[1] = Investigation of the asphyxial anoxia; type: in vivo, CFLP mice; settings: for ED50: Mus musculus, po, 1 h, survival time longer by 30% than control = protected; for ED50 / Asphyxial anoxia (percent): mice; for Asphyxial anoxia (percent): 50 mg/kg p.o.
Procedure: (§1) The investigations were carried out on Hann-Wistar (LATI=a Hungarian firm with the name "Institute for Breeding Laboratory Animals") rats and CFLP (LATI) mice. The compounds to be tested were orally administered in a volume of 5 ml/kg of body-weight (abbreviated: ml/kg) to rats and in a volume of 10 ml/kg to mice 60 minutes before starting the experiment.
(§2) The substances were suspended in a solution of Tween 80 of 0.5% strength and then diluted to the desired concentration with physiological saline solution.
(§3) The results are expressed as percentages or, alternatively the ED50 values together with the 95% fiducial limits are given as calculated by means of the probit analysis [J. T. Litschfield and F. Wilcoxon: J. Pharmacol. 96, 99 (1949)].
5. Investigation of the asphyxial anoxia
The method of C. Caillard et al. [Life Sci. 16, 1607 (1975)] was used for this test.
Mice (n=5) of both sexes weighing 22 to 24 g were starved for 16 hours, then treated with a 50 mg/kg dose of the compounds to be tested. After 60 minutes, the animals were placed in tightly closed glass bottles of 100 ml volume and the survival time was registered.

[2] = Inhibition of the conditioned avoidance response (CAR inhibition); type: in vivo, Hann-Wistar rats (male); settings: rats; for ED50: Rattus norvegicus, po, 1 h, p.o., 60 min before test
Procedure: as §1, §2, §3
1. Inhibition of the conditioned avoidance response (CAR inhibition)
The method of D. Bovet et al. (in: Neuropsychopharmacology Vol. 2., p. 142 ed. Elsevier Publishing House, Amsterdam, 1961) was used for this test.
Male rats weighing 140 to 160 g were conditioned for 10 days in an automated six-channel shuttle box (VKI). Each one session consisted of 30 cycles; the time of the partial cycles was 15 seconds for intersignal time, 15 seconds for light stimulus, 10 seconds for light stimulus and footshock (0.8 mA). The selected animals (n=6; selected on the basis of a performance higher than 80% at the 10th day) were treated with a 20 mg/kg dose of the compounds to be tested before the 11th session and their performance (i.e. the mean of the number of the conditioned avoidance responses) was compared to the value obtained for each group at the previous day taken as control value.

[3] = Investigation of the cataleptogenic effect (catalepsy); type: in vivo, Hann-Wistar rats (male); settings: rats; for ED50 at 5 h: rat, in vivo, po, hourly observed for 5 hours; for Catalepsy (percent): 60 mg/kg p.o.
Procedure: as §1, §2, §3
2. Investigation of the cataleptogenic effect
The method of G. Stile and H. Launer [Arzneim.-Forsch. 21, 252 (1971)] was used for this test.
Male rats weighing 90 to 110 g (n=6) were treated with different doses of the compounds to be tested, then the number of the animals showing catalepsy was hourly observed for 5 hours.

dopaminergic system = test: Investigation of the apomorphine hypothermia-reverting effect; type: in vivo, Hann-Wistar rats; settings: 10 mg/kg p.o., apomorphine 5 mg/kg i.p., rats
Procedure: as §1, §2, §3
4. Investigation of the apomorphine hypothermia-reverting effect
The method of A. Barnett et al. [Arch. Int. Pharmacodyn. Ther. 198, 242 (1972)] was used for this test.
The rectal temperature of rats (n=5) was determined by using an Ellab thermometer before administering the compounds to be tested in a dose of 10 mg/kg. Thereafter, a dose of 5 mg/kg of apomorphine was intraperitoneally given and the temperature of the animals was hourly registered for 3 hours.
The significant apomorphine-antagonizing action (reversion of the hypothermia) of the compounds is a proof of inhibition of the dopaminergic system.

[4] = Investigation of the amphetamine group toxicity; type: in vivo, CFLP mice; settings: d-amphetamine 21 mg/kg i.p., 24 hours, mice; for Amphetamine group tox. (percent): 30 mg/kg p.o.
Procedure: as §1, §2, §3
3. Investigation of the amphetamine group toxicity
The method of C. D. Proctor et al. [Arch. Int. Pharmacodyn. Ther. 163, 74 (1966)] was used for this test.
The examination was carried out on mice of both sexes weighing 22 to 27 g (n=5). At the 60th minute after administration of the compounds to be tested in a dose of 30 mg/kg, d-amphetamine in a dose of 21 mg/kg was intraperitoneally given to the animals tightly closed together (25 cm^2 /mouse) and the percentage of the perished animals was registered after 24 hours.

[5] = H. Watchel et al., Life Sci. 33, 2583; cited from earlier work

Structure (SMILES): CC(=O)OCC1C=C2c3cccc4c3c(c(Cl)n4C(C)=O)CC2N(C)C1 (stereo not drawn) [A, 1-Acetyl-8-acetyloxymethyl-2-chloro-6-methyl-9-ergolene]
- ED50 [1]: 34.8 mg/kg
- ED50 [2]: 3.4 mg/kg
- ED50 at 5 h [3]: 46.5 mg/kg
- Apomorphine hypothermia, difference of temperature change vs. apomorphine alone, 60 min (dopaminergic system): +1.3 °C
- Apomorphine hypothermia, difference of temperature change vs. apomorphine alone, 120 min (dopaminergic system): +1.3 °C
- ED50 ([4]; Mus musculus, po, read-out: Amphetamine group tox. ED50): 19.6 mg/kg

Structure (SMILES): CN1CC(CO)C=C2c3cccc4c3c(c(Cl)n4C)CC21 (stereo not drawn) [E, 2-chloro-1,6-dimethyl-8-hydroxymethyl-9-ergolene maleate]
- ED50 [1]: 8.6 mg/kg
- antihypoxic effect (in words) ([1]; mice p.o.): the antihypoxic effect comes into prominence
- CAR inhibition (percent) ([2]; 20 mg/kg p.o.): 24%
- Catalepsy (percent) [3]: 0%
- Apomorphine hypothermia, difference of temperature change vs. apomorphine alone, 60 min (dopaminergic system): +0.8 °C
- Apomorphine hypothermia, difference of temperature change vs. apomorphine alone, 120 min (dopaminergic system): +1.8 °C
- Amphetamine group tox. (percent) [4]: 0%

Structure (SMILES): CC(=O)OCC1C=C2c3cccc4c3c(c(Br)n4C(C)=O)CC2N(C)C1 (stereo not drawn) [D, 1-acetyl-8-acetyloxymethyl-2-bromo-6-methyl-9-ergolene]
- Asphyxial anoxia (percent) [1]: 50%
- ED50 [2]: 4.6 mg/kg
- ED50 at 5 h [3]: 42.4 mg/kg
- Apomorphine hypothermia, difference of temperature change vs. apomorphine alone, 60 min (dopaminergic system): +0.9 °C
- Apomorphine hypothermia, difference of temperature change vs. apomorphine alone, 120 min (dopaminergic system): +1.7 °C
- Amphetamine group tox. (percent) [4]: 0%

Structure (SMILES): CN1CC(CCl)C=C2c3cccc4c3c(c(Cl)n4C=O)CC21 (stereo not drawn) [C, 2-chloro-8-chloromethyl-1-formyl-6-methyl-9-ergolene]
- Asphyxial anoxia (percent) [1]: 50%
- ED50 [2]: 12.9 mg/kg
- Catalepsy (percent) [3]: 0%
- Apomorphine hypothermia, difference of temperature change vs. apomorphine alone, 60 min (dopaminergic system): +0.6 °C
- Apomorphine hypothermia, difference of temperature change vs. apomorphine alone, 120 min (dopaminergic system): +1.2 °C
- Amphetamine group tox. (percent) [4]: 0%

Structure (SMILES): CC(=O)OCC1C=C2c3cccc4c3c(c(Cl)n4C=O)CC2N(C)C1 (stereo not drawn) [B, 8-acetyloxymethyl-2-chloro-1-formyl-6-methyl-9-ergolene hydrogen sulfate]
- Asphyxial anoxia (percent) [1]: 20%
- ED50 [2]: 3.7 mg/kg
- ED50 at 5 h [3]: 51.9 mg/kg
- Apomorphine hypothermia, difference of temperature change vs. apomorphine alone, 60 min (dopaminergic system): +2.0 °C
- Apomorphine hypothermia, difference of temperature change vs. apomorphine alone, 120 min (dopaminergic system): +2.4 °C
- Amphetamine group tox. (percent) [4]: 10%

Structure (SMILES): CCN(CC)C(=O)NC1C=C2c3cccc4[nH]c(Br)c(c34)CC2N(C)C1 (stereo not drawn) [2-Bromolysuride, 2-bromolysuride, reference compound]
- neuroleptic effect (in words) [5]: strong neuroleptic effect
- ED50 at 5 h [3]: 3.3 mg/kg
